Results as given in patent US7326803B2, “Ligand inhibitors of the RAR receptors, process for preparing same and therapeutic/cosmetic applications thereof” (Galderma Research & Development, priority 2002, dated 2008).

Assays:
Assay type in all cases: cell-based
RAR alpha = target: T1, RAR alpha (Homo sapiens, UniProt P10276); test: Transactivation test (luciferase reporter, HeLa cells), RAR alpha; conditions: HeLa stable transfectants; for Kd: Schild regression against reference agonist 4-[2-(5,5,8,8-tetramethyl-5,6,7,8-tetrahydro-2-naphthyl)propenyl]benzoic acid, read-out: RAR alpha Kdapp; for IC50: reference ligand at the concentration that gives 80% activation
T1 sequence (P10276 183-417 limits assumed): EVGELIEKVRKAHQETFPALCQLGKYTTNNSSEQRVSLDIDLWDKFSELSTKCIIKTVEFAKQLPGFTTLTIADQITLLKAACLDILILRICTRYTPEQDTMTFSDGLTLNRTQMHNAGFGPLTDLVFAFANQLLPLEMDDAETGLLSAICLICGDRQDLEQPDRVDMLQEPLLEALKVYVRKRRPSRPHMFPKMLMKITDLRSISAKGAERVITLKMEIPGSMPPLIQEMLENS
Procedure: (§1) The activation of receptors with an agonist (activator) in HeLa cells leads to the expression of a reporter gene, luciferase, which, in the presence of a substrate, generates light. The activation of the receptors may thus be measured by quantifying the luminescence produced after incubating the cells in the presence of a reference agonist. The inhibitory products displace the agonist from its site, thus preventing activation of the receptor. The activity is measured by quantifying the reduction in light produced. This measurement makes it possible to determine the inhibitory activity of the compounds according to the invention.
(§2) Determination of the Kdapp:
(§3) In this study, a constant is determined which represents the affinity of the molecule for the receptor. Since this value can fluctuate depending on the basal activity and the expression of the receptor, it is referred to as the Kdapparent (KdApp).
(§4) To determine this constant, “crossed curves” of the test product against a reference agonist, 4-[2-(5,5,8,8-tetramethyl-5,6,7,8-tetrahydro-2-naphthyl)propenyl]benzoic acid, are performed in 96-well plates. The test product is used at 10 concentrations and the reference agonist at 7 concentrations. In each well, the cells are in contact with a concentration of the test product and a concentration of the reference agonist, 4-[2-(5,5,8,8-tetramethyl-5,6,7,8-tetrahydro-2-naphthyl)propenyl]benzoic acid. Measurements are also taken for the total agonist (4-[2-(5,5,8,8-tetramethyl-5,6,7,8-tetrahydro-2-naphthyl)propenyl]benzoic acid) and inverse agonist, 4-{(E)-3-[4-(4-tert-butylphenyl)-5,5,8,8-tetramethyl-5,6,7,8-tetrahydro-2-naphthyl]-3-oxopropenyl}benzoic acid, controls.
(§5) These crossed curves make it possible to determine the AC50 values (concentration at which 50% activation is observed) for the reference ligand at various concentrations of test product. These AC50 values are used to calculate the Schild regression by plotting a straight line corresponding to the Schild equation (“quantitation in receptor pharmacology” Terry P. Kenakin, Receptors and Channels, 2001, 7, 371-385).
(§6) In the case of an antagonist, an IC50 value (concentration that inhibits 50% of the activity) is calculated by plotting the curve of the product at the concentration of the reference ligand that gives 80% activation.
(§7) The HeLa cell lines used are stable transfectants containing the plasmids ERE-βGlob-Luc-SV-Neo (reporter gene) and RAR (α, β, γ) ER-DBD-puro. These cells are inoculated into 96-well plates at a rate of 10 000 cells per well in 100 μl of DMEM medium without phenol red, and supplemented with 10% defatted calf serum. The plates are then incubated at 37° C. and 7% CO2 for 4 hours.
(§8) The various dilutions of the test products, of the reference ligand (4-[2-(5,5,8,8-tetramethyl-5,6,7,8-tetrahydro-2-naphthyl)propenyl]benzoic acid), of the 100% control (100 nM 4-[2-(5,5,8,8-tetramethyl-5,6,7,8-tetrahydro-2-naphthyl)propenyl]benzoic acid) and of the 0% control (500 nM 4-{(E)-3-[4-(4-tert-butylphenyl)-5,5,8,8-tetramethyl-5,6,7,8-tetrahydro-2-naphthyl]-3-oxopropenyl}benzoic acid) are added at a rate of 5 μl per well. The plates are then incubated for 18 hours at 37° C. and 7% CO2.
(§9) The culture medium is removed by turning over and 100 μl of a 1:1 PBS/luciferine mixture is added to each well. After 5 minutes, the plates are read using the luminescence detector.

RAR beta = target: T2, RAR beta (Homo sapiens, UniProt P10826); test: Transactivation test (luciferase reporter, HeLa cells), RAR beta; conditions: HeLa stable transfectants; for Kd: Schild regression against reference agonist 4-[2-(5,5,8,8-tetramethyl-5,6,7,8-tetrahydro-2-naphthyl)propenyl]benzoic acid, read-out: RAR beta Kdapp; for IC50: reference ligand at the concentration that gives 80% activation
T2 sequence (P10826 183-417 limits assumed): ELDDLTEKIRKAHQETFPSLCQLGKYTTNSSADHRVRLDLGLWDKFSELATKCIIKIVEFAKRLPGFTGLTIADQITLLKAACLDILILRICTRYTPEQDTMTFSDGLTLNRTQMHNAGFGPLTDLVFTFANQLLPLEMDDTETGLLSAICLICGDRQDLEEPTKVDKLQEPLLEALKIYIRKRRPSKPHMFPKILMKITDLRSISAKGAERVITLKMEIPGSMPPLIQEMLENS
Procedure: as §1, §2, §3, §4, §5, §6, §7, §8, §9

RAR gamma = target: T3, RAR gamma (Homo sapiens, UniProt P13631); test: Transactivation test (luciferase reporter, HeLa cells), RAR gamma; conditions: HeLa stable transfectants; for Kd: Schild regression against reference agonist 4-[2-(5,5,8,8-tetramethyl-5,6,7,8-tetrahydro-2-naphthyl)propenyl]benzoic acid, read-out: RAR gamma Kdapp; for IC50: reference ligand at the concentration that gives 80% activation
T3 sequence (P13631 185-419 limits assumed): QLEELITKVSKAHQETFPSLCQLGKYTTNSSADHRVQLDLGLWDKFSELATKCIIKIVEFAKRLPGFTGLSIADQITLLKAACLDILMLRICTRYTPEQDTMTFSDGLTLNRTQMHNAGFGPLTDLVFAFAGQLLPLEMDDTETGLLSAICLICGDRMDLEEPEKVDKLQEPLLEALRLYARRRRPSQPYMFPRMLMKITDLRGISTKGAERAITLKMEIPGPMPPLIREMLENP
Procedure: as §1, §2, §3, §4, §5, §6, §7, §8, §9

Structure (SMILES)	Kd (RAR alpha) [nM]	IC50 (RAR alpha) [nM]	Kd (RAR beta) [nM]	IC50 (RAR beta) [nM]	Kd (RAR gamma) [nM]	IC50 (RAR gamma) [nM]
CC1(C)CCC(C)(C)c2c(OCc3cccc(F)c3)cc([Se]C#Cc3ccc(C(=O)O)cc3)cc21 [Ex 1, 4-[4-(3-fluorobenzyloxy)-5,5,8,8-tetramethyl-5,6,7,8-tetrahydro-2-naphthylselanylethynyl]benzoic acid]	8	14	4	6.5	2	5
CC1(C)CCC(C)(C)c2c(OCc3ccc(F)cc3F)cc([Se]C#Cc3ccc(C(=O)O)cc3)cc21 [Ex 5, 4-[4-(2,4-difluorobenzyloxy)-5,5,8,8-tetramethyl-5,6,7,8-tetrahydro-2-naphthylselanylethynyl]benzoic acid]	2	3.5	1	1.6	1	2.5
CC1(C)CCC(C)(C)c2c(OCc3ccc(F)cc3)cc([Se]C#Cc3ccc(C(=O)O)cc3)cc21 [Ex 11, 4-[5,5,8,8-tetramethyl-4-(4-fluorobenzyloxy)-5,6,7,8-tetrahydro-2-naphthylselanylethynyl]benzoic acid]	8	14	4	6.4	1	2.5
Cc1cccc(COc2cc([Se]C#Cc3ccc(C(=O)O)cc3)cc3c2C(C)(C)CCC3(C)C)c1 [Ex 10, 4-[5,5,8,8-tetramethyl-4-(3-methylbenzyloxy)-5,6,7,8-tetrahydro-2-naphthylselanylethynyl]benzoic acid]	30	52.5	15	24	4	10
CC1(C)CCC(C)(C)c2c(OCc3ccc(F)c(F)c3)cc([Se]C#Cc3ccc(C(=O)O)cc3)cc21 [Ex 4, 4-[4-(3,4-difluorobenzyloxy)-5,5,8,8-tetramethyl-5,6,7,8-tetrahydro-2-naphthylselanylethynyl]benzoic acid]	2	3.5	4	6.4	1	2.5
CC(C)(C)c1ccc(COc2cc([Se]C#Cc3ccc(C(=O)O)cc3)cc3c2C(C)(C)CCC3(C)C)cc1 [Ex 3, 4-[4-(4-tert-butylbenzyloxy)-5,5,8,8-tetramethyl-5,6,7,8-tetrahydro-2-naphthylselanylethynyl]benzoic acid]	15	26.3	30	48	4	10
